# Key:
# Type in all cases: in vivo
# [1] = tested on: Echinochloa oryzacola Vasing.; assay: Test Example 1: herbicidal activity, application before weed generation in submerged conditions; conditions: Seventeenth Table; for A: Echinochloa oryzicola Vasing. (herbicidal effect grade): Application herbicide amount 320 g/ha
# Method in brief: (§1)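 Pre-emergence water-surface application under 4 cm flooding, same day as sowing, with rice transplanted at 2.5 leaf stage. Dose given as g/ha. Plants grown at 25° C. to 30° C. and rated three weeks later on a 0 (≤5%) to 5 (≥90%) herbicidal-ratio scale.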
# Scirpus juncoides = assay: as above; conditions: Seventeenth Table; for B: Scirpus juncoides (herbicidal effect grade): Application herbicide amount 320 g/ha
# Method in brief: as §1
# Monochoria vaginalis = assay: as above; conditions: Seventeenth Table; for C: Monochoria vaginalis (herbicidal effect grade): Application herbicide amount 320 g/ha
# Method in brief: as §1
# Triticum aestivum = assay: Test Example 4: effect on crop by application to foliage (diluvial soil, plastic box); conditions: 320 g/ha; for e (Triticum aestivum) effect on crop grade: foliage application
# Method in brief: (§2)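 Seeds sown in sterilized diluvial soil, covered ~1.5 cm, grown 14 days in greenhouse at 25° C. to 30° C. Emulsion formulation diluted in water to set rate (g/ha) and sprayed onto stems and leaves. Effect scored visually 3 weeks later on 0–5 scale (5 = ≥90% herbicidal ratio, 0 = ≤5%).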
# Zea mays = assay: as above; conditions: 320 g/ha; for b (Zea mays) effect on crop grade: foliage application
# Method in brief: as §2
# Glycine max = assay: as above; conditions: 320 g/ha; for c (Glycine max) effect on crop grade: foliage application
# Method in brief: as §2
# [2] = tested on: Beta vulgaris ssp. vulgaris; assay: as above; conditions: 320 g/ha; for f (Beta vulgaris ssp. vulgaris) effect on crop grade: foliage application
# Method in brief: as §2
# Brassica campestris L. = assay: as above; conditions: 320 g/ha; for g (Brassica campestris L.) effect on crop grade: foliage application
# Method in brief: as §2
# [3] = tested on: directly sowed Oryza sativa; assay: as above; conditions: 320 g/ha; for d (directly sowed Oryza sativa) effect on crop grade: foliage application
# Method in brief: as §2
# Galium spurium = assay: Test Example 4: herbicidal effect by application to foliage (diluvial soil, plastic box); conditions: 320 g/ha; for Q (Galium spurium) herbicidal effect grade: foliage application
# Method in brief: as §2
# Abutilon theophrasti = assay: as above; conditions: 320 g/ha; for M (Abutilon theophrasti) herbicidal effect grade: foliage application
# Method in brief: as §2
# Chenopodium album = assay: as above; conditions: 320 g/ha; for O (Chenopodium album) herbicidal effect grade: foliage application
# Method in brief: as §2
# Apera spica-venti. = assay: as above; conditions: 320 g/ha; for L (Apera spica-venti.) herbicidal effect grade: foliage application
# Method in brief: as §2
# Amaranthus retroflexus = assay: as above; conditions: 320 g/ha; for N (Amaranthus retroflexus) herbicidal effect grade: foliage application
# Method in brief: as §2
# Setaria viridis = assay: as above; conditions: 320 g/ha; for G (Setaria viridis) herbicidal effect grade: foliage application
# Method in brief: as §2
# Alopecurus myosuroides = assay: as above; conditions: 320 g/ha; for J (Alopecurus myosuroides) herbicidal effect grade: foliage application
# Method in brief: as §2
# Lolium multiflorum Lam. = assay: as above; conditions: 320 g/ha; for K (Lolium multiflorum Lam.) herbicidal effect grade: foliage application
# Method in brief: as §2
# Avena fatua = assay: as above; conditions: 320 g/ha; for I (Avena fatua) herbicidal effect grade: foliage application
# Method in brief: as §2
# [4] = tested on: Echinochloa crus-galli var. crus-galli; assay: as above; conditions: 320 g/ha; for H (Echinochloa crus-galli var. crus-galli) herbicidal effect grade: foliage application
# Method in brief: as §2
# Veronica persica = assay: as above; conditions: 320 g/ha; for R (Veronica persica) herbicidal effect grade: foliage application
# Method in brief: as §2
# Digitaria ciliaris = assay: as above; conditions: 320 g/ha; for F (Digitaria ciliaris) herbicidal effect grade: foliage application
# Method in brief: as §2
# Stellaria media = assay: as above; conditions: 320 g/ha; for P (Stellaria media) herbicidal effect grade: foliage application
# Method in brief: as §2
# [5] = application herbicide amount 320 g/ha
structure (smiles),measurement,setting,value
CCC(C)Sc1nnc2c(C(=O)Nc3nnnn3C)ccc(C(F)(F)F)n12 (stereo not drawn) [2-072],A: Echinochloa oryzicola Vasing. (herbicidal effect grade),[1],5 (Herbicidal ratio of 90% or more (almost completely withered))
same,B: Scirpus juncoides (herbicidal effect grade),Scirpus juncoides,5 (Herbicidal ratio of 90% or more (almost completely withered))
same,C: Monochoria vaginalis (herbicidal effect grade),Monochoria vaginalis,5 (Herbicidal ratio of 90% or more (almost completely withered))
same,e (Triticum aestivum) effect on crop grade,Triticum aestivum,1 (Herbicidal ratio of 5% or more and less than 20%)
same,b (Zea mays) effect on crop grade,Zea mays,1 (Herbicidal ratio of 5% or more and less than 20%)
same,c (Glycine max) effect on crop grade,Glycine max,3 (Herbicidal ratio of 40% or more and less than 70%)
same,f (Beta vulgaris ssp. vulgaris) effect on crop grade,[2],5 (Herbicidal ratio of 90% or more (almost completely withered))
same,g (Brassica campestris L.) effect on crop grade,Brassica campestris L.,4 (Herbicidal ratio of 70% or more and less than 90%)
same,d (directly sowed Oryza sativa) effect on crop grade,[3],4 (Herbicidal ratio of 70% or more and less than 90%)
same,Q (Galium spurium) herbicidal effect grade,Galium spurium,3 (Herbicidal ratio of 40% or more and less than 70%)
same,M (Abutilon theophrasti) herbicidal effect grade,Abutilon theophrasti,5 (Herbicidal ratio of 90% or more (almost completely withered))
same,O (Chenopodium album) herbicidal effect grade,Chenopodium album,5 (Herbicidal ratio of 90% or more (almost completely withered))
same,L (Apera spica-venti.) herbicidal effect grade,Apera spica-venti.,3 (Herbicidal ratio of 40% or more and less than 70%)
same,N (Amaranthus retroflexus) herbicidal effect grade,Amaranthus retroflexus,5 (Herbicidal ratio of 90% or more (almost completely withered))
same,G (Setaria viridis) herbicidal effect grade,Setaria viridis,5 (Herbicidal ratio of 90% or more (almost completely withered))
same,J (Alopecurus myosuroides) herbicidal effect grade,Alopecurus myosuroides,1 (Herbicidal ratio of 5% or more and less than 20%)
same,K (Lolium multiflorum Lam.) herbicidal effect grade,Lolium multiflorum Lam.,1 (Herbicidal ratio of 5% or more and less than 20%)
same,I (Avena fatua) herbicidal effect grade,Avena fatua,1 (Herbicidal ratio of 5% or more and less than 20%)
same,H (Echinochloa crus-galli var. crus-galli) herbicidal effect grade,[4],5 (Herbicidal ratio of 90% or more (almost completely withered))
same,R (Veronica persica) herbicidal effect grade,Veronica persica,5 (Herbicidal ratio of 90% or more (almost completely withered))
same,F (Digitaria ciliaris) herbicidal effect grade,Digitaria ciliaris,5 (Herbicidal ratio of 90% or more (almost completely withered))
same,P (Stellaria media) herbicidal effect grade,Stellaria media,5 (Herbicidal ratio of 90% or more (almost completely withered))
CC(C)CSc1nnc2c(C(=O)Nc3nnnn3C)ccc(C(F)(F)F)n12 [2-071],A: Echinochloa oryzicola Vasing. (herbicidal effect grade),[1],5 (Herbicidal ratio of 90% or more (almost completely withered))
same,B: Scirpus juncoides (herbicidal effect grade),Scirpus juncoides,5 (Herbicidal ratio of 90% or more (almost completely withered))
same,C: Monochoria vaginalis (herbicidal effect grade),Monochoria vaginalis,5 (Herbicidal ratio of 90% or more (almost completely withered))
same,e (Triticum aestivum) effect on crop grade,Triticum aestivum,1 (Herbicidal ratio of 5% or more and less than 20%)
same,b (Zea mays) effect on crop grade,Zea mays,1 (Herbicidal ratio of 5% or more and less than 20%)
same,c (Glycine max) effect on crop grade,Glycine max,2 (Herbicidal ratio of 20% or more and less than 40%)
same,f (Beta vulgaris ssp. vulgaris) effect on crop grade,[2],5 (Herbicidal ratio of 90% or more (almost completely withered))
same,g (Brassica campestris L.) effect on crop grade,Brassica campestris L.,4 (Herbicidal ratio of 70% or more and less than 90%)
same,d (directly sowed Oryza sativa) effect on crop grade,[3],3 (Herbicidal ratio of 40% or more and less than 70%)
same,Q (Galium spurium) herbicidal effect grade,Galium spurium,3 (Herbicidal ratio of 40% or more and less than 70%)
same,M (Abutilon theophrasti) herbicidal effect grade,Abutilon theophrasti,4 (Herbicidal ratio of 70% or more and less than 90%)
same,O (Chenopodium album) herbicidal effect grade,Chenopodium album,5 (Herbicidal ratio of 90% or more (almost completely withered))
same,L (Apera spica-venti.) herbicidal effect grade,Apera spica-venti.,1 (Herbicidal ratio of 5% or more and less than 20%)
same,N (Amaranthus retroflexus) herbicidal effect grade,Amaranthus retroflexus,5 (Herbicidal ratio of 90% or more (almost completely withered))
same,G (Setaria viridis) herbicidal effect grade,Setaria viridis,4 (Herbicidal ratio of 70% or more and less than 90%)
same,J (Alopecurus myosuroides) herbicidal effect grade,Alopecurus myosuroides,1 (Herbicidal ratio of 5% or more and less than 20%)
same,K (Lolium multiflorum Lam.) herbicidal effect grade,Lolium multiflorum Lam.,1 (Herbicidal ratio of 5% or more and less than 20%)
same,I (Avena fatua) herbicidal effect grade,Avena fatua,2 (Herbicidal ratio of 20% or more and less than 40%)
same,H (Echinochloa crus-galli var. crus-galli) herbicidal effect grade,[4],5 (Herbicidal ratio of 90% or more (almost completely withered))
same,R (Veronica persica) herbicidal effect grade,Veronica persica,5 (Herbicidal ratio of 90% or more (almost completely withered))
same,F (Digitaria ciliaris) herbicidal effect grade,Digitaria ciliaris,5 (Herbicidal ratio of 90% or more (almost completely withered))
same,P (Stellaria media) herbicidal effect grade,Stellaria media,5 (Herbicidal ratio of 90% or more (almost completely withered))
CC#Cc1nnc2c(C(=O)Nc3nnnn3C)ccc(C(F)(F)F)n12 [2-106],A (Echinochloa oryzicola Vasing.) herbicidal ratio grade,[1]; [5],5 (Herbicidal ratio of 90% or more (almost completely withered))
same,B (Scirpus juncoides) herbicidal ratio grade,Scirpus juncoides; [5],3 (Herbicidal ratio of 40% or more and less than 70%)
same,C (Monochoria vaginalis) herbicidal ratio grade,Monochoria vaginalis; [5],4 (Herbicidal ratio of 70% or more and less than 90%)
same,"effect on crop, e (Triticum aestivum)",Triticum aestivum; application to foliage,0 (Herbicidal ratio of 5% or less (almost no effect))
same,"effect on crop, b (Zea mays)",Zea mays; application to foliage,0 (Herbicidal ratio of 5% or less (almost no effect))
same,"effect on crop, c (Glycine max)",Glycine max; application to foliage,0 (Herbicidal ratio of 5% or less (almost no effect))
same,"effect on crop, f (Beta vulgaris ssp. vulgaris)",[2]; application to foliage,5 (Herbicidal ratio of 90% or more (almost completely withered))
same,"effect on crop, g (Brassica campestris L.)",Brassica campestris L.; application to foliage,3 (Herbicidal ratio of 40% or more and less than 70%)
same,"effect on crop, d (directly sowed Oryza sativa)",[3]; application to foliage,4 (Herbicidal ratio of 70% or more and less than 90%)
same,"herbicidal effect, Q (Galium spurium)",Galium spurium; application to foliage,3 (Herbicidal ratio of 40% or more and less than 70%)
same,"herbicidal effect, M (Abutilon theophrasti)",Abutilon theophrasti; application to foliage,5 (Herbicidal ratio of 90% or more (almost completely withered))
same,"herbicidal effect, O (Chenopodium album)",Chenopodium album; application to foliage,5 (Herbicidal ratio of 90% or more (almost completely withered))
same,"herbicidal effect, L (Apera spica-venti.)",Apera spica-venti.; application to foliage,0 (Herbicidal ratio of 5% or less (almost no effect))
same,"herbicidal effect, N (Amaranthus retroflexus)",Amaranthus retroflexus; application to foliage,4 (Herbicidal ratio of 70% or more and less than 90%)
same,"herbicidal effect, G (Setaria viridis)",Setaria viridis; application to foliage,1 (Herbicidal ratio of 5% or more and less than 20%)
same,"herbicidal effect, J (Alopecurus myosuroides)",Alopecurus myosuroides; application to foliage,0 (Herbicidal ratio of 5% or less (almost no effect))
same,"herbicidal effect, K (Lolium multiflorum Lam.)",Lolium multiflorum Lam.; application to foliage,0 (Herbicidal ratio of 5% or less (almost no effect))
same,"herbicidal effect, I (Avena fatua)",Avena fatua; application to foliage,1 (Herbicidal ratio of 5% or more and less than 20%)
same,"herbicidal effect, H (Echinochloa crus-galli var. crus-galli)",[4]; application to foliage,3 (Herbicidal ratio of 40% or more and less than 70%)
same,"herbicidal effect, R (Veronica persica)",Veronica persica; application to foliage,3 (Herbicidal ratio of 40% or more and less than 70%)
same,"herbicidal effect, F (Digitaria ciliaris)",Digitaria ciliaris; application to foliage,3 (Herbicidal ratio of 40% or more and less than 70%)
same,"herbicidal effect, P (Stellaria media)",Stellaria media; application to foliage,4 (Herbicidal ratio of 70% or more and less than 90%)
